How the values were obtained:
Rattus norvegicus [1] = assay: Tested for the induction of lower lip retraction (LLR) by the investigated compounds in rat at dosage of 4 mg/kg; type: functional
Mus musculus [2] = assay: Effect on 8-OH-DPAT-induced hypothermia in mice (5 mg/kg) at intraperitoneal dosage of 4 mg/kg of compound after 15 mins; type: functional
Rattus norvegicus [3] = assay: Tested for the effect on 8-OH-DPAT-induced lower lip retraction (LLR) in rat at dosage of 2 mg/kg; type: functional
Rattus norvegicus [4] = assay: Tested for the effect on 8-OH-DPAT-induced behavior in reserpine pretreated rat against flat body posture at dosage of 8 mg/kg; type: functional
Mus musculus [5] = assay: Effect on body temperature in mice at intraperitoneal dosage of 8 mg/kg, (compound administered 30 min before the test) after 60 min; type: functional
Mus musculus [6] = assay: Effect on body temperature in mice at intraperitoneal dosage of 4 mg/kg, (compound administered 30 min before the test) after 30 min; type: functional
Rattus norvegicus [7] = species: Rattus norvegicus; assay: Selectivity is the ratio between Ki values of 5-HT2 and 5-HT1A
Mus musculus [8] = assay: Effect on body temperature in mice at intraperitoneal dosage of 4 mg/kg, (compound administered 30 min before the test) after 75 min; type: functional
Rattus norvegicus [9] = assay: Tested for the effect on 8-OH-DPAT-induced lower lip retraction (LLR) in rat at dosage of 4 mg/kg; type: functional
Rattus norvegicus [10] = assay: Tested for the induction of lower lip retraction (LLR) by the investigated compounds in rat at dosage of 16 mg/kg; type: functional
Rattus norvegicus [11] = assay: Tested for the effect on 8-OH-DPAT-induced behavior in reserpine pretreated rat against flat body posture at dosage of 2 mg/kg; type: functional
Rattus norvegicus [12] = assay: Tested for the effect on 8-OH-DPAT-induced behavior in reserpine pretreated rat against forepaw treading at dosage of 16 mg/kg; type: functional
Rattus norvegicus [13] = assay: Tested for the effect on 8-OH-DPAT-induced behavior in reserpine pretreated rat against forepaw treading at dosage of 8 mg/kg; type: functional
Mus musculus [14] = assay: Effect on body temperature in mice at intraperitoneal dosage of 8 mg/kg, (compound administered 30 min before the test) after 75 min; type: functional
[15] = target: Serotonin 2 (5-HT2) receptor (Rattus norvegicus, UniProt P30994+P08909+P14842); assay: Tested in vitro for receptor binding affinity against 5-hydroxytryptamine 2 receptor using radioligand [3H]ketanserin; type: protein assay
Mus musculus [16] = assay: Effect on body temperature in mice at intraperitoneal dosage of 4 mg/kg, (compound administered 30 min before the test) after 60 min; type: functional
Rattus norvegicus [17] = assay: Tested for the effect on 8-OH-DPAT-induced behavior in reserpine pretreated rat against flat body posture at dosage of 16 mg/kg; type: functional
Mus musculus [18] = assay: Effect on 8-OH-DPAT-induced hypothermia in mice (5 mg/kg) at intraperitoneal dosage of 8 mg/kg of compound after 60 mins; type: functional
Mus musculus [19] = assay: Effect on 8-OH-DPAT-induced hypothermia in mice (5 mg/kg) at intraperitoneal dosage of 4 mg/kg of compound after 45 mins; type: functional
Mus musculus [20] = assay: Effect on 8-OH-DPAT-induced hypothermia in mice (5 mg/kg) at intraperitoneal dosage of 2 mg/kg of compound after 45 mins; type: functional
Mus musculus [21] = assay: Effect on 8-OH-DPAT-induced hypothermia in mice (5 mg/kg) at intraperitoneal dosage of 8 mg/kg of compound after 15 mins; type: functional
Rattus norvegicus [22] = assay: Tested for the effect on 8-OH-DPAT-induced behavior in reserpine pretreated rat against forepaw treading at dosage of 2 mg/kg; type: functional
Mus musculus [23] = assay: Effect on 8-OH-DPAT-induced hypothermia in mice (5 mg/kg) at intraperitoneal dosage of 2 mg/kg of compound after 60 mins; type: functional
Mus musculus [24] = assay: Effect on body temperature in mice at intraperitoneal dosage of 2 mg/kg, (compound administered 30 min before the test) after 90 min; type: functional
Mus musculus [25] = assay: Effect on body temperature in mice at intraperitoneal dosage of 2 mg/kg, (compound administered 30 min before the test) after 30 min; type: functional
Mus musculus [26] = assay: Effect on body temperature in mice at intraperitoneal dosage of 2 mg/kg, (compound administered 30 min before the test) after 75 min; type: functional
Rattus norvegicus [27] = assay: Tested for the effect on 8-OH-DPAT-induced behavior in reserpine pretreated rat against forepaw treading at dosage of 4 mg/kg; type: functional
Mus musculus [28] = assay: Effect on 8-OH-DPAT-induced hypothermia in mice (5 mg/kg) at intraperitoneal dosage of 2 mg/kg of compound after 30 mins; type: functional
Mus musculus [29] = assay: Effect on 8-OH-DPAT-induced hypothermia in mice (5 mg/kg) at intraperitoneal dosage of 4 mg/kg of compound after 30 mins; type: functional
Mus musculus [30] = assay: Effect on 8-OH-DPAT-induced hypothermia in mice (5 mg/kg) at intraperitoneal dosage of 2 mg/kg of compound after 15 mins; type: functional
Rattus norvegicus [31] = assay: Tested for the effect on 8-OH-DPAT-induced lower lip retraction (LLR) in rat at dosage of 16 mg/kg; type: functional
Mus musculus [32] = assay: Effect on body temperature in mice at intraperitoneal dosage of 4 mg/kg, (compound administered 30 min before the test) after 90 min; type: functional
Mus musculus [33] = assay: Effect on body temperature in mice at intraperitoneal dosage of 8 mg/kg, (compound administered 30 min before the test) after 45 min; type: functional
Mus musculus [34] = assay: Effect on 8-OH-DPAT-induced hypothermia in mice (5 mg/kg) at intraperitoneal dosage of 4 mg/kg of compound after 60 mins; type: functional
Mus musculus [35] = assay: Effect on body temperature in mice at intraperitoneal dosage of 2 mg/kg, (compound administered 30 min before the test) after 60 min; type: functional
Rattus norvegicus [36] = assay: Tested for the induction of lower lip retraction (LLR) by the investigated compounds in rat at dosage of 2 mg/kg; type: functional
Mus musculus [37] = assay: Effect on body temperature in mice at intraperitoneal dosage of 8 mg/kg, (compound administered 30 min before the test) after 30 min; type: functional
Rattus norvegicus [38] = assay: Tested for the induction of lower lip retraction (LLR) by the investigated compounds in rat at dosage of 8 mg/kg; type: functional
Rattus norvegicus [39] = assay: Tested for the effect on 8-OH-DPAT-induced behavior in reserpine pretreated rat against forepaw treading at dosage of 1 mg/kg; type: functional
Mus musculus [40] = assay: Effect on body temperature in mice at intraperitoneal dosage of 8 mg/kg, (compound administered 30 min before the test) after 90 min; type: functional
Rattus norvegicus [41] = assay: Tested for the effect on 8-OH-DPAT-induced lower lip retraction (LLR) in rat at dosage of 8 mg/kg; type: functional
Mus musculus [42] = assay: Effect on 8-OH-DPAT-induced hypothermia in mice (5 mg/kg) at intraperitoneal dosage of 8 mg/kg of compound after 45 mins; type: functional
[43] = target: T1, 5-hydroxytryptamine receptor 1A (Rattus norvegicus, UniProt P19327); assay: Tested in vitro for receptor binding affinity against 5-hydroxytryptamine 1A receptor using radioligand [3H]8-OH-DPAT
T1 sequence (P19327 whole entry): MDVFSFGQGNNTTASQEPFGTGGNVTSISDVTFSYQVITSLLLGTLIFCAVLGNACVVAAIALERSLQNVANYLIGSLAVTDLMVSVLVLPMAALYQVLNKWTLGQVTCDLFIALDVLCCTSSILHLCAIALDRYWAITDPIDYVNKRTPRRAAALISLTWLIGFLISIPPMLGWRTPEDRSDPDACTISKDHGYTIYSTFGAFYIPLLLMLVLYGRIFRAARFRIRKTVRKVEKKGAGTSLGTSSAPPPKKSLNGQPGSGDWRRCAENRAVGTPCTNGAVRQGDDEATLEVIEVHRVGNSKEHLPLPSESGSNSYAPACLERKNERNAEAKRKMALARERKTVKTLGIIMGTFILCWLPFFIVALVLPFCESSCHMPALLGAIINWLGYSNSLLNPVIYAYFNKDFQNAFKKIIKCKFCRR

Rattus norvegicus [44] = assay: Tested for the effect on 8-OH-DPAT-induced behavior in reserpine pretreated rat against flat body posture at dosage of 4 mg/kg; type: functional
Mus musculus [45] = assay: Effect on body temperature in mice at intraperitoneal dosage of 4 mg/kg, (compound administered 30 min before the test) after 45 min; type: functional
Mus musculus [46] = assay: Effect on 8-OH-DPAT-induced hypothermia in mice (5 mg/kg) at intraperitoneal dosage of 8 mg/kg of compound after 30 mins; type: functional
Rattus norvegicus [47] = assay: Tested for the effect on 8-OH-DPAT-induced behavior in reserpine pretreated rat against flat body posture at dosage of 1 mg/kg; type: functional
Mus musculus [48] = assay: Effect on body temperature in mice at intraperitoneal dosage of 2 mg/kg, (compound administered 30 min before the test) after 45 min; type: functional

Selectivity (Rattus norvegicus [7]): 54
Ki [15]: 214 nM
Ki [43]: 4 nM
Compound: COc1ccccc1N1CCN(CCCCn2nc3ccccc3n2)CC1
LLR score (Rattus norvegicus [1]): 1
Delta t (Mus musculus [2]): 2.7 °C
LLR score (Rattus norvegicus [3]): 2.5
Behavioral score (Rattus norvegicus [4]): 5.2
Delta t (Mus musculus [5]): 2 °C
Delta t (Mus musculus [6]): 0.9 °C
Delta t (Mus musculus [8]): 0.8 °C
LLR score (Rattus norvegicus [9]): 2.3
LLR score (Rattus norvegicus [10]): 1.9
Behavioral score (Rattus norvegicus [11]): 9.3
Behavioral score (Rattus norvegicus [12]): 1.3
Behavioral score (Rattus norvegicus [13]): 2.4
Delta t (Mus musculus [14]): 2 °C
Delta t (Mus musculus [16]): 0.9 °C
Behavioral score (Rattus norvegicus [17]): 2.6
Delta t (Mus musculus [18]): 1.1 °C
Delta t (Mus musculus [19]): 1.8 °C
Delta t (Mus musculus [20]): 1.2 °C
Delta t (Mus musculus [21]): 2.4 °C
Behavioral score (Rattus norvegicus [22]): 5.6
Delta t (Mus musculus [23]): 0.9 °C
Delta t (Mus musculus [24]): 0.1 °C
Delta t (Mus musculus [25]): 0.1 °C
Delta t (Mus musculus [26]): 0.3 °C
Behavioral score (Rattus norvegicus [27]): 5.1
Delta t (Mus musculus [28]): 1.9 °C
Delta t (Mus musculus [29]): 2.3 °C
Delta t (Mus musculus [30]): 2.1 °C
LLR score (Rattus norvegicus [31]): 2.4
Delta t (Mus musculus [32]): 0.8 °C
Delta t (Mus musculus [33]): 2.5 °C
Delta t (Mus musculus [34]): 1.3 °C
Delta t (Mus musculus [35]): 0.2 °C
LLR score (Rattus norvegicus [36]): 0.3
Delta t (Mus musculus [37]): 2.8 °C
LLR score (Rattus norvegicus [38]): 1.5
Behavioral score (Rattus norvegicus [39]): 13.6
Delta t (Mus musculus [40]): 1.4 °C
LLR score (Rattus norvegicus [41]): 2.4
Delta t (Mus musculus [42]): 1.6 °C
Behavioral score (Rattus norvegicus [44]): 11.7
Delta t (Mus musculus [45]): 0.8 °C
Delta t (Mus musculus [46]): 2.2 °C
Behavioral score (Rattus norvegicus [47]): 14.2
Delta t (Mus musculus [48]): 0 °C

— ChEMBL document CHEMBL1127439, “Structure-activity relationship studies of central nervous system agents. 13. 4-[3-(Benzotriazol-1-yl)propyl]-1-(2-methoxyphenyl)piperazine, a new putative 5-HT1A receptor antagonist, and its analogs” (J Med Chem, 1994)
